Experimental data published in ChEMBL document CHEMBL1129893 (Bioorg Med Chem Lett, 1997).
Activity calls are given as the source filed them. The calls are words filed in the database; no cut-off is given here.

Legend:
Estrogen receptor [1] = molecular target: T1, Estrogen receptor (Homo sapiens, UniProt Q92731+P03372); settings: mcf-7
Description: Antagonist effect in breast tissue was assayed by inhibition of estrogen stimulated MCF-7 cell proliferation

Estrogen receptor [2] = molecular target: T1, Estrogen receptor; experiment: Displacement of [3H]estradiol from estrogen receptor in MCF-7 cell lysate; Inactive; format: cell-free

| SMILES | IC50 (Estrogen receptor [1]) | Relative binding affinity (Estrogen receptor [2]) |
| --- | --- | --- |
| C#Cc1ccc2c(C(=O)c3ccc(OCCN4CCCCC4)cc3)c(-c3ccc(O)cc3)sc2c1 | 20 nM | – |
| NC(=O)c1ccc2c(C(=O)c3ccc(OCCN4CCCCC4)cc3)c(-c3ccc(O)cc3)sc2c1 | 1000 nM | – |
| C#Cc1ccc(-c2sc3cc(O)ccc3c2C(=O)c2ccc(OCCN3CCCCC3)cc2)cc1 | 0.8 nM | – |
| O=C(O)c1ccc(-c2sc3cc(O)ccc3c2C(=O)c2ccc(OCCN3CCCCC3)cc2)cc1 | 325 nM | – |
| COC(=O)c1ccc(-c2sc3cc(O)ccc3c2C(=O)c2ccc(OCCN3CCCCC3)cc2)cc1 | 50 nM | – |
| COC(=O)c1ccc2c(C(=O)c3ccc(OCCN4CCCCC4)cc3)c(-c3ccccc3)sc2c1 | 1000 nM | – |
| CCOP(=O)(OCC)c1ccc(-c2sc3cc(O)ccc3c2C(=O)c2ccc(OCCN3CCCCC3)cc2)cc1 | 210 nM | – |
| C=Cc1ccc(-c2sc3cc(O)ccc3c2C(=O)c2ccc(OCCN3CCCCC3)cc2)cc1 | 7 nM | – |
| N#Cc1ccc(-c2sc3cc(O)ccc3c2C(=O)c2ccc(OCCN3CCCCC3)cc2)cc1 | 8 nM | – |
| CC(=O)c1ccc(-c2sc3cc(O)ccc3c2C(=O)c2ccc(OCCN3CCCCC3)cc2)cc1 | 32 nM | – |
| CCCCOC(=O)c1ccc2c(C(=O)c3ccc(OCCN4CCCCC4)cc3)c(-c3ccc(O)cc3)sc2c1 | 40 nM | – |
| CC(C)COC(=O)c1ccc2c(C(=O)c3ccc(OCCN4CCCCC4)cc3)c(-c3ccc(O)cc3)sc2c1 | 40 nM | – |
| CNC(=O)c1ccc(-c2sc3cc(O)ccc3c2C(=O)c2ccc(OCCN3CCCCC3)cc2)cc1 | 40 nM | – |
| CCOC(=O)c1ccc(-c2sc3cc(O)ccc3c2C(=O)c2ccc(OCCN3CCCCC3)cc2)cc1 | 50 nM | – |
| COC(=O)c1ccc2c(C(=O)c3ccc(OCCN4CCCCC4)cc3)c(-c3ccc(O)cc3)sc2c1 | 30 nM | – |
| COC(=O)c1ccc(-c2sc3cc(C(=O)OC)ccc3c2C(=O)c2ccc(OCCN3CCCCC3)cc2)cc1 | 1000 nM | – |
| COC(=O)c1ccc(-c2sc3ccccc3c2C(=O)c2ccc(OCCN3CCCCC3)cc2)cc1 | 1000 nM | inactive |
| NC(=O)c1ccc(-c2sc3cc(O)ccc3c2C(=O)c2ccc(OCCN3CCCCC3)cc2)cc1 | 200 nM | – |
| CN(C)C(=O)c1ccc(-c2sc3cc(O)ccc3c2C(=O)c2ccc(OCCN3CCCCC3)cc2)cc1 | 20 nM | – |
| O=C(O)c1ccc2c(C(=O)c3ccc(OCCN4CCCCC4)cc3)c(-c3ccc(O)cc3)sc2c1 | – | inactive |
| CCOP(=O)(OCC)c1ccc2c(C(=O)c3ccc(OCCN4CCCCC4)cc3)c(-c3ccc(O)cc3)sc2c1 | 200 nM | – |
| CC(=O)c1ccc2c(C(=O)c3ccc(OCCN4CCCCC4)cc3)c(-c3ccc(O)cc3)sc2c1 | 60 nM | – |
